The nature of data set [1]: Hepatotoxicity in Balb/c mouse infected with Trypanosoma cruzi MHOM/Pe/2011/Arequipa DTU 5 trypomastigotes assessed as decrease in serum ALT to GPT level at 20 mg/kg, po once daily for 5 consecutive days starting from day 10 post infection measured on day 16 post infection relative to control. Format: toxicity, organism-based. Also on record: scale not given: the % may be the effect or the level left. The conditions noted are these: in vivo.

The nature of data set [2]: Hepatotoxicity in Balb/c mouse infected with Trypanosoma cruzi MHOM/Pe/2011/Arequipa DTU 5 trypomastigotes assessed as change in total bilirubin level at 20 mg/kg, po once daily for 5 consecutive days starting from day 75 post infection measured on day 81 post infection (reference value: 0.25 mg/dl). Format: toxicity, organism-based. The conditions noted are these: in vivo.

Data set [3] concerns Trypanosoma cruzi. Put plainly: Antitrypanosomal activity against Trypanosoma cruzi MHOM/Pe/2011/Arequipa DTU 5 trypomastigotes infected in Balb/c mouse assessed as parasite-free spleen at 20 mg/kg, po pretreated once daily for 5 consecutive days starting from day 75 post infection followed by cyclophosphamide-induced immunosuppression on day 100 post infection every 4 days for a maximum of 3 doses measured on day 127 post infection by PCR method. Format: functional, organism-based.

Data set [4] concerns Trypanosoma cruzi. Put plainly: Antitrypanosomal activity against Trypanosoma cruzi MHOM/Pe/2011/Arequipa DTU 5 trypomastigotes infected in Balb/c mouse assessed as parasite-free muscle at 20 mg/kg, po pretreated once daily for 5 consecutive days starting from day 75 post infection followed by cyclophosphamide-induced immunosuppression on day 100 post infection every 4 days for a maximum of 3 doses measured on day 127 post infection by PCR method. The format is functional, organism-based.

The nature of data set [5]: Cardiotoxicity in Balb/c mouse infected with Trypanosoma cruzi MHOM/Pe/2011/Arequipa DTU 5 trypomastigotes assessed as decrease in ratio of creatine kinase in muscle to brain at 20 mg/kg, po once daily for 5 consecutive days starting from day 10 post infection measured on day 16 post infection by biochemical analysis relative to control. The conditions noted are these: in vivo. Further details: scale not given: the % may be the effect or the level left. Format: toxicity, organism-based.

Data set [6] is described as follows: Hepatotoxicity in Balb/c mouse infected with Trypanosoma cruzi MHOM/Pe/2011/Arequipa DTU 5 trypomastigotes assessed as increase in alkaline phosphatase level at 20 mg/kg, po once daily for 5 consecutive days starting from day 75 post infection measured on day 127 post infection relative to control. Format: toxicity, organism-based. The conditions noted are these: in vivo.

Data set [7] can be described thus: Hepatotoxicity in Balb/c mouse infected with Trypanosoma cruzi MHOM/Pe/2011/Arequipa DTU 5 trypomastigotes assessed as increase in ratio of serum ALT to GPT level at 20 mg/kg, po once daily for 5 consecutive days starting from day 75 post infection measured on day 81 post infection relative to control. Format: toxicity, organism-based. The conditions noted are these: in vivo.

Data set [8] is described as follows: Hepatotoxicity in Balb/c mouse infected with Trypanosoma cruzi MHOM/Pe/2011/Arequipa DTU 5 trypomastigotes assessed as increase in ratio of serum ALT to GPT level at 20 mg/kg, po once daily for 5 consecutive days starting from day 75 post infection measured on day 127 post infection relative to control. Format: toxicity, organism-based. The conditions noted are these: in vivo.

Data set [9] concerns Trypanosoma cruzi. Put plainly: Trypanocidal activity against Trypanosoma cruzi MHOM/Pe/2011/Arequipa DTU 5 amastigotes infected in African green monkey Vero cells assessed as infected cells at 50 uM after 72 hrs by Giemsa-staining based assay relative to control. Format: functional.
In data set [10] the test system is Trypanosoma cruzi. In words: Antitrypanosomal activity against Trypanosoma cruzi MHOM/Pe/2011/Arequipa DTU 5 trypomastigotes infected in Balb/c mouse assessed as reduction in parasitaemia level at 20 mg/kg, po once daily for 5 consecutive days starting from day 10 post infection measured every 2 to 3 days up to day 50 post infection starting from day 7 post infection by Neubauer chamber method. The format is functional, organism-based.

The source made the active and inactive calls. The rule behind the calls is not given here.

As to `Cl.Cl.Cl.NCCN(CCN)CCNCc1ccc2c(c1)Cc1ccccc1-2`, the Activity entry was “<= 10%” in data set [1], 0.25 mg/dL in data set [2] and “<= 10%” in data set [5]. Moreover, the result in the data set with Trypanosoma cruzi [3] and in the data set with Trypanosoma cruzi [4] was Active.

In the case of `O=C(Cn1ccnc1[N+](=O)[O-])NCc1ccccc1` [BENZNIDAZOLE], the Activity result in data set [6] and in data set [7] was “<= 20%” in each case.

In the case of `Cl.Cl.Cl.Cl.Cl.Cl.c1ccc2nc(CNCCN(CCNCc3ccc4ccccc4n3)CCNCc3ccc4ccccc4n3)ccc2c1`, the figures for the Activity result (in data set [8]; with Trypanosoma cruzi [9]) were “<= 10%” and 0%, respectively. The outcome in the data set on Trypanosoma cruzi [10] was inactive.
